The target of this assay is VHL (Homo sapiens (Human), UniProt P40337). The assay can be described thus: VHL fluorescence polarization (FP) competition assay. The format is binding.

`Cc1ncsc1-c1ccc(CNC(=O)[C@@H]2C[C@@H](O)CN2C(=O)[C@@H](C(C)C)N2Cc3ccc(F)cc3C2=O)cc1` [Example 10, (2S,4R)-1-((R)-2-(6-fluoro-1-oxoisoindolin-2-yl)-3-methylbutanoyl)-4-hydroxy-N-(4-(4-methylthiazol-5-yl)benzyl)pyrrolidine-2-carboxamide]: the IC50 runs as follows: (1% in DMSO) around 6.73 µM; (10% in DMSO) 295 µM.
For `Cc1ncsc1-c1ccc(CNC(=O)[C@@H]2C[C@@H](O)CN2C(=O)[C@H](C(C)C)N2Cc3cccc(C#N)c3C2=O)cc1` [Example 47, (2S,4R)-1-((S)-2-(7-cyano-1-oxoisoindolin-2-yl)-3-methylbutanoyl)-4-hydroxy-N-(4-(4-methylthiazol-5-yl)benzyl)pyrrolidine-2-carboxamide], the 50% inhibitory concentration (IC50) (1% in DMSO) was 0.178 µM and the IC50 (10% in DMSO) was 0.339 µM.
With `Cc1ncsc1-c1ccc(CNC(=O)[C@@H]2C[C@@H](O)CN2C(=O)[C@H](C(C)C)N2Cc3c(C#N)cccc3C2=O)cc1` [Example 35, (2S,4R)-1-((S)-2-(4-cyano-1-oxoisoindolin-2-yl)-3-methylbutanoyl)-4-hydroxy-N-(4-(4-methylthiazol-5-yl)benzyl)pyrrolidine-2-carboxamide], the IC50 is 2.05 µM (0.25% in DMSO), 0.509 µM (1% in DMSO) and 1.3 µM (10% in DMSO).
As to `Cc1ncsc1-c1ccc(CNC(=O)[C@@H]2C[C@@H](O)CN2C(=O)[C@@H](NC(=O)[C@H](C)N)C(C)(C)C)cc1` [Example 123, (2S,4R)-1-((S)-2-((S)-2-aminopropanamido)-3,3-dimethylbutanoyl)-4-hydroxy-N-(4-(4-methylthiazol-5-yl)benzyl)pyrrolidine-2-carboxamide], under “1% in DMSO”, the concentration for half-maximal inhibition (IC50) came out at 4.23 µM.
Turning to `Cc1ncsc1-c1ccc([C@H](C)NC(=O)[C@@H]2C[C@@H](O)CN2C(=O)[C@H](C(C)C)N2Cc3ccccc3C2=O)cc1` [Example 39, (2S,4R)-4-hydroxy-N-[(1S)-1-[4-(4-methyl-1,3-thiazol-5-yl)phenyl]ethyl]-1-[(2S)-3-methyl-2-(1-oxo-2,3-dihydro-1H-isoindol-2-yl)butanoyl]pyrrolidine-2-carboxamide], the IC50 reads like this: (0.25% in DMSO) 0.958 µM; (1% in DMSO) 0.699 µM; (10% in DMSO) 1.63 µM.
Consider `Cc1ncsc1-c1ccc(CNC(=O)[C@@H]2C[C@@H](O)CN2C(=O)[C@H](C(C)C)N2Cc3ccccc3C2=O)cc1` [Example 6, (2S,4R)-4-hydroxy-1-((S)-3-methyl-2-(1-oxoisoindolin-2-yl)butanoyl)-N-(4-(4-methylthiazol-5-yl)benzyl)pyrrolidine-2-carboxamide], for which the IC50 is, setting by setting: (0.25% in DMSO) 6.37 µM; (1% in DMSO) 0.697 µM; (10% in DMSO) 1.48 µM.
The compound `Cc1c(-c2ccc(CNC(=O)[C@@H]3C[C@@H](O)CN3C(=O)[C@H](C(C)C)N3Cc4ccccc4C3=O)cc2)ncn1C` [Example 106, (2S,4R)—N-(4-(1,5-dimethyl-1H-imidazol-4-yl)benzyl)-4-hydroxy-1-((S)-3-methyl-2-(1-oxoisoindolin-2-yl)butanoyl)pyrrolidine-2-carboxamide] came in with a half-inhibitory concentration (IC50) (1% in DMSO) of 14.2 µM.
For `Cc1ncsc1-c1ccc(CNC(=O)[C@@H]2C[C@@H](O)CN2C(=O)[C@@H](NC(=O)c2cccc(C#N)c2)C(C)(C)C)cc1` [Example 71, (2S,4R)-1-((S)-2-(3-cyanobenzamido)-3,3-dimethylbutanoyl)-4-hydroxy-N-(4-(4-methylthiazol-5-yl)benzyl)pyrrolidine-2-carboxamide], the IC50 stood at 1.62 µM (1% in DMSO) and 1.38 µM (10% in DMSO).
`CCC[C@H](NC(C)=O)C(=O)N1C[C@H](O)C[C@H]1C(=O)NCc1ccc(-c2scnc2C)cc1` [Example 148, (2S,4R)-1-((S)-2-acetamidopentanoyl)-4-hydroxy-N-(4-(4-methylthiazol-5-yl)benzyl)pyrrolidine-2-carboxamide] showed an IC50 (1% in DMSO) of 6.2 µM.
For `CC(C)[C@@H](C(=O)N1C[C@H](O)C[C@H]1C(=O)NCc1ccc(Br)cc1)N1Cc2ccccc2C1=O` [Example 23, (2S,4R)—N-(4-bromobenzyl)-4-hydroxy-1-((S)-3-methyl-2-(1-oxoisoindolin-2-yl)butanoyl)pyrrolidine-2-carboxamide], the 50% inhibitory concentration (IC50) by setting is: (0.25% in DMSO) 1.14 µM; (1% in DMSO) 2.51 µM; (10% in DMSO) 6.04 µM.
Regarding `CSC[C@H](NC(=O)CCC(C)C)C(=O)N1C[C@H](O)C[C@H]1C(=O)NCc1ccc(-c2scnc2C)cc1` [Example 22, (2S,4R)-4-hydroxy-1-((R)-2-(4-methylpentanamido)-3-(methylthio)propanoyl)-N-(4-(4-methylthiazol-5-yl)benzyl)pyrrolidine-2-carboxamide], the 50% inhibitory concentration (IC50) reads like this: (1% in DMSO) 6.25 µM; (10% in DMSO) 8.29 µM.
On to `Cc1ncsc1-c1ccc(CNC(=O)[C@@H]2C[C@@H](O)CN2C(=O)[C@@H](NC(=O)CC(C)C)C(C)(C)C)cc1` [Example 18, (2S,4R)-1-((S)-3,3-dimethyl-2-(3-methylbutanamido)butanoyl)-4-hydroxy-N-(4-(4-methylthiazol-5-yl)benzyl)pyrrolidine-2-carboxamide], for which the IC50 amounted to 5.5 µM (0.25% in DMSO), 0.855 µM (1% in DMSO) and 2.72 µM (10% in DMSO).
As for `Cc1ncsc1-c1ccc(CNC(=O)[C@@H]2C[C@@H](O)CN2C(=O)[C@@H](NC(=O)CC2CCCCC2)C(C)(C)C)cc1` [Example 19, (2S,4R)-1-((S)-2-(2-cyclohexylacetamido)-3,3-dimethylbutanoyl)-4-hydroxy-N-(4-(4-methylthiazol-5-yl)benzyl)pyrrolidine-2-carboxamide], the IC50 is, setting by setting: (0.25% in DMSO) 3.77 µM; (1% in DMSO) 0.937 µM; (10% in DMSO) 1.65 µM.
Take `COc1ccc(C(=O)N2C[C@H](O)C[C@H]2C(=O)NCc2ccc(-c3scnc3C)cc2)c(C)c1` [Example 88, (2S,4R)-4-hydroxy-1-(4-methoxy-2-methylbenzoyl)-N-(4-(4-methylthiazol-5-yl)benzyl)pyrrolidine-2-carboxamide]: the half-inhibitory concentration (IC50) came to 20.4 µM (1% in DMSO) and 39.2 µM (10% in DMSO).
Take `Cc1ncsc1-c1ccc(CNC(=O)[C@@H]2C[C@@H](O)CN2C(=O)[C@@H](NC(=O)CCC2CCCCC2)C(C)(C)C)cc1` [Example 20, (2S,4R)-1-((S)-2-(3-cyclohexylpropanamido)-3,3-dimethylbutanoyl)-4-hydroxy-N-(4-(4-methylthiazol-5-yl)benzyl)pyrrolidine-2-carboxamide]: the IC50 is, setting by setting: (0.25% in DMSO) 4.96 µM; (1% in DMSO) 1.05 µM; (10% in DMSO) 1.15 µM.
On to `CC(C)[C@@H](C(=O)N1C[C@H](O)C[C@H]1C(=O)NCc1ccc(-c2ccn[nH]2)cc1)N1Cc2ccccc2C1=O` [Example 41, (2S,4R)—N-(4-(1H-pyrazol-5-yl)benzyl)-4-hydroxy-1-((S)-3-methyl-2-(1-oxoisoindolin-2-yl)butanoyl)pyrrolidine-2-carboxamide], for which the concentration for half-maximal inhibition (IC50) runs as follows: (0.25% in DMSO) 7.28 µM; (1% in DMSO) 1.19 µM; (10% in DMSO) 3.05 µM.
The matching figures for `Cc1ncsc1-c1ccc(CNC(=O)[C@@H]2C[C@@H](O)CN2C(=O)[C@H](C(C)C)N2Cc3cc(F)ccc3C2=O)cc1` [Example 16, (2S,4R)-1-((S)-2-(5-fluoro-1-oxoisoindolin-2-yl)-3-methylbutanoyl)-4-hydroxy-N-(4-(4-methylthiazol-5-yl)benzyl)pyrrolidine-2-carboxamide]: 2.95 µM, 0.265 µM and 1.8 µM.

The record behind these values is patent US10730870B2, “Compounds and methods for the enhanced degradation of targeted proteins” (Arvinas, Inc., priority 2015, dated 2020).
